Experimental data as given in patent US9387211B2 (Cedars-Sinai Medical Center, priority 2010, dated 2016).

Key:
[1] = tested on: AtT20 cells stably expressing empty vector (V); assay: Pomc promoter luciferase assay; details: highest gefitinib dose (10 μM); control cells
[2] = tested on: AtT20 cells stably expressing empty vector (V); assay: BrdU incorporation by flow cytometry; details: 10 μM gefitinib, 24 hours
Description: Fixative was prepared by adding 30 mL of 50 mM glycin solution (pH 2.0) to 70 mL ethanol. Cells were fixed for overnight at −20° C. Cells were washed with PBS, and resuspended in incubation solution with anti-BrdU antibody (1:10) for 30 minutes at 37° C. with gentle agitation. […] Samples were washed with PBS and fluorescence was measured by flow cytometry.

[3] = tested on: non-tumor pituitary cell cultures
[4] = tested on: AtT20 cells stably expressing empty vector (V); assay: Cell proliferation assay (cell counting)
Description: EGFR WT cells were plated at a density of 2×10^4 per well in 12-well plates with growth medium. Cells were counted by hemocytometer at the indicated times.

Compound: COc1cc2ncnc(Nc3ccc(F)c(Cl)c3)c2cc1OCCCN1CCOCC1 [gefitinib]
- suppression of pomc promoter activity [1]: ~23%
- reduction of BrdU incorporation [2]: ~58%
- pomc mRNA expression levels ([3]; non-tumor pituitary cell cultures (FIG. 6)): unaltered
- normal pituitary function ([3]; normal pituitary (FIG. 5F)): does not affect
- decrease of cell proliferation ([4]; gefitinib 0.1-10 μM, 24 hours, V): not V cell proliferation
- cell number ([4]; high dose (10 μM) gefitinib, V cells): not altered
